Tested on: NT2/D1-R1 control and DNMT3B knockdown cells
Assay: Genome-wide expression analysis with PAM clusters, control and DNMT3B knockdown cells (Tables 8-14)
Conditions: sh-Ctrl + aza, NT2/D1-R1, decitabine 10 nM 3 days

With Nc1ncn([C@H]2C[C@H](O)[C@@H](CO)O2)c(=O)n1 [aza] the “ACSS2 (NM_0010765) gene expression, Mean” value was 354.703, the “ADCK1 (NM_020421) gene expression, Mean” value was 203.584 and the “ADCY1 (NM_021116) gene expression, Mean” value was 106.028. For the same molecule, the “AGAP1 (NM_014914) gene expression, Mean” value was 188.156, the “AK056312 gene expression, Mean” value was 293.846 and the “ANKRD9 (NM_152326) gene expression, Mean” value was 614.423. For the same molecule, the “APEH (NM_001640) gene expression, Mean” value was 720.135, the “APP (NM_201414) gene expression, Mean” value was 326.901 and the “C1orf115 (NM_024709) gene expression, Mean” value was 213.203. For the same molecule, the “C2orf34 (NM_024766) gene expression, Mean” value was 205.5, the “C7orf47 (NM_145030) gene expression, Mean” value was 466.635 and the “C16orf35 (NM_0010394) gene expression, Mean” value was 630.186. The “CA4 (NM_000717) gene expression, Mean” value was 1449.98, the “CACNA2D2 (NM_006030) gene expression, Mean” value was 304.761 and the “CD24 (NM_013230) gene expression, Mean” value was 1797.88. For the same molecule, the “CD248 (NM_020404) gene expression, Mean” value was 178.853, the “CDC42EP5 (NM_145057) gene expression, Mean” value was 219.473 and the “CDH3 (NM_001793) gene expression, Mean” value was 651.295. For the same molecule, the “CEBPB (NM_005194) gene expression, Mean” value was 1388.19, the “CHST13 (NM_152889) gene expression, Mean” value was 151.937 and the “CLASP1 (NM_015282) gene expression, Mean” value was 301.334. For the same molecule, the “CLIP2 (NM_032421) gene expression, Mean” value was 175.136, the “COMMD1 (NM_152516) gene expression, Mean” value was 235.362 and the “COMMD7 (NM_0010993) gene expression, Mean” value was 915.427. The “CRMP1 (NM_0010148) gene expression, Mean” value was 328.665, the “CTNNBIP1 (NM_020248) gene expression, Mean” value was 144.946 and the “CXCL16 (NM_022059) gene expression, Mean” value was 279.669. The “CYP2F1 (NM_000774) gene expression, Mean” value was 126.222, the “CYP2S1 (NM_030622) gene expression, Mean” value was 604.679 and the “DBC1 (NM_014618) gene expression, Mean” value was 197.271. For the same molecule, the “DDIT4 (NM_019058) gene expression, Mean” value was 522.11, the “DGKQ (NM_001347) gene expression, Mean” value was 247.199 and the “DLL3 (NM_016941) gene expression, Mean” value was 120.925. The “DPYSL3 (NM_001387) gene expression, Mean” value was 602.964, the “DYM (NM_017653) gene expression, Mean” value was 217.362 and the “DYSF (NM_003494) gene expression, Mean” value was 188.291. For the same molecule, the “EEF2K (NM_013302) gene expression, Mean” value was 243.652, the “EPHA1 (NM_005232) gene expression, Mean” value was 497.427 and the “EVI5L (NM_145245) gene expression, Mean” value was 247.813. The “EVL (NM_016337) gene expression, Mean” value was 537.424, the “EXTL3 (NM_001440) gene expression, Mean” value was 695.163 and the “F11R (NM_016946) gene expression, Mean” value was 182.523. The “FAF1 (NM_007051) gene expression, Mean” value was 209.978, the “FAM125A (NM_138401) gene expression, Mean” value was 564.523 and the “FAM127A (NM_0010781) gene expression, Mean” value was 867.222. For the same molecule, the “FCGBP (NM_003890) gene expression, Mean” value was 247.577, the “FDFT1 (NM_004462) gene expression, Mean” value was 417.59 and the “FIGNL2 (NM_0010136) gene expression, Mean” value was 231.29. The “FLNB (NM_001457) gene expression, Mean” value was 679.266, the “FOXN3 (NM_005197) gene expression, Mean” value was 274.017 and the “GAL (NM_015973) gene expression, Mean” value was 1375.17. The “GAS7 (NM_201433) gene expression, Mean” value was 225.598, the “GLG1 (NM_012201) gene expression, Mean” value was 958.607 and the “GRAMD1A (NM_020895) gene expression, Mean” value was 767.701. For the same molecule, the “GTF3C1 (NM_001520) gene expression, Mean” value was 387.976, the “HCFC1R1 (NM_0010020) gene expression, Mean” value was 427.673 and the “HESX1 (NM_003865) gene expression, Mean” value was 204.885. For the same molecule, the “HINT2 (NM_032593) gene expression, Mean” value was 537.794, the “HIST3H2A (NM_033445) gene expression, Mean” value was 314.077 and the “HIST4H4 (NM_003541) gene expression, Mean” value was 218.72. For the same molecule, the “HK1 (NM_033500) gene expression, Mean” value was 3617.1, the “IDH1 (NM_005896) gene expression, Mean” value was 668.525 and the “IL21R (NM_181078) gene expression, Mean” value was 154.278. For the same molecule, the “JPH3 (NM_020655) gene expression, Mean” value was 167.797, the “KIF1A (NM_004321) gene expression, Mean” value was 160.071 and the “KIF1B (NM_015074) gene expression, Mean” value was 252.94. The “LDB2 (NM_001290) gene expression, Mean” value was 202.228, the “LDOC1 (NM_012317) gene expression, Mean” value was 502.418 and the “LHFPL4 (NM_198560) gene expression, Mean” value was 215.926. The “LONP1 (NM_004793) gene expression, Mean” value was 779.763, the “LPCAT3 (NM_005768) gene expression, Mean” value was 477.318 and the “LRBA (NM_006726) gene expression, Mean” value was 170.16. The “LRRC33 (NM_198565) gene expression, Mean” value was 145.858, the “MAPK3 (NM_0010400) gene expression, Mean” value was 277.581 and the “MAPKAP1 (NM_0010066) gene expression, Mean” value was 182.648. The “MED30 (NM_080651) gene expression, Mean” value was 647.26, the “MID1IP1 (NM_021242) gene expression, Mean” value was 649.056 and the “MKRN1 (NM_013446) gene expression, Mean” value was 2856.3. For the same molecule, the “MSRB2 (NM_012228) gene expression, Mean” value was 934.409, the “MYO5C (NM_018728) gene expression, Mean” value was 151.991 and the “NANOG (NM_024865) gene expression, Mean” value was 706.99. For the same molecule, the “NCOR2 (NM_006312) gene expression, Mean” value was 493.089, the “NDUFS4 (NM_002495) gene expression, Mean” value was 337.053 and the “NFE2L3 (NM_004289) gene expression, Mean” value was 222.942. For the same molecule, the “NGFRAP1 (NM_206917) gene expression, Mean” value was 1121.05, the “NKX3-2 (NM_001189) gene expression, Mean” value was 409.938 and the “NM_014745 gene expression, Mean” value was 379.916. For the same molecule, the “NPAS1 (NM_002517) gene expression, Mean” value was 201.893, the “NPTX2 (NM_002523) gene expression, Mean” value was 367.499 and the “ODZ3 (NM_0010804) gene expression, Mean” value was 189.247. For the same molecule, the “P4HB (NM_000918) gene expression, Mean” value was 1383.99, the “PACSIN1 (NM_020804) gene expression, Mean” value was 216.839 and the “PCDH19 (NM_020766) gene expression, Mean” value was 151.727. The “PCK2 (NM_0010180) gene expression, Mean” value was 116.02, the “PDZD4 (NM_032512) gene expression, Mean” value was 182.348 and the “PEMT (NM_148172) gene expression, Mean” value was 595.006. For the same molecule, the “PEX14 (NM_004565) gene expression, Mean” value was 250.351, the “PGM1 (NM_002633) gene expression, Mean” value was 1814.18 and the “PHC1 (NM_004426) gene expression, Mean” value was 951.052. For the same molecule, the “PIM2 (NM_006875) gene expression, Mean” value was 985.879, the “PITPNC1 (NM_181671) gene expression, Mean” value was 180.093 and the “PNKP (NM_007254) gene expression, Mean” value was 424.886. For the same molecule, the “PPAP2A (NM_176895) gene expression, Mean” value was 348.062, the “PPP1R1B (NM_181505) gene expression, Mean” value was 238.675 and the “PQLC3 (NM_152391) gene expression, Mean” value was 198.571. For the same molecule, the “PRSS8 (NM_002773) gene expression, Mean” value was 991.013, the “PSAT1 (NM_021154) gene expression, Mean” value was 1824.54 and the “PTOV1 (NM_017432) gene expression, Mean” value was 720.62. The “PTPLA (NM_014241) gene expression, Mean” value was 227.16, the “RAB3IP (NM_175624) gene expression, Mean” value was 601.056 and the “RALY (NM_007367) gene expression, Mean” value was 833.663. The “RASIP1 (NM_017805) gene expression, Mean” value was 185.874, the “RASL11B (NM_023940) gene expression, Mean” value was 432.564 and the “RCN2 (NM_002902) gene expression, Mean” value was 501.026. For the same molecule, the “REEP6 (NM_138393) gene expression, Mean” value was 405.813, the “RNF130 (NM_018434) gene expression, Mean” value was 174.702 and the “ROD1 (NM_005156) gene expression, Mean” value was 637.491. The “RPS6KA2 (NM_0010069) gene expression, Mean” value was 141.693, the “SAT1 (NM_002970) gene expression, Mean” value was 1895.82 and the “SCARB1 (NM_005505) gene expression, Mean” value was 433.694. For the same molecule, the “SEMA4B (NM_198925) gene expression, Mean” value was 288.428, the “SEMA4D (NM_006378) gene expression, Mean” value was 315.221 and the “SEMA6B (NM_032108) gene expression, Mean” value was 218.592. For the same molecule, the “SH2B3 (NM_005475) gene expression, Mean” value was 424.579, the “SLC3A2 (NM_0010132) gene expression, Mean” value was 898.448 and the “SLC8A2 (NM_015063) gene expression, Mean” value was 166.295. For the same molecule, the “SLC16A10 (NM_018593) gene expression, Mean” value was 159.709, the “SLC22A23 (NM_021945) gene expression, Mean” value was 233.534 and the “SND1 (NM_014390) gene expression, Mean” value was 423.122. The “SOX2 (NM_003106) gene expression, Mean” value was 271.23, the “SPRY1 (NM_005841) gene expression, Mean” value was 248.973 and the “SPSB2 (NM_032641) gene expression, Mean” value was 474.363. The “SRPX (NM_006307) gene expression, Mean” value was 222.901, the “SURF6 (NM_006753) gene expression, Mean” value was 1293.98 and the “TBCD (NM_005993) gene expression, Mean” value was 256.961. The “TCEA2 (NM_198723) gene expression, Mean” value was 483.559, the “TCF7L1 (NM_031283) gene expression, Mean” value was 144.548 and the “TIMP4 (NM_003256) gene expression, Mean” value was 389.521. The “TMC6 (NM_007267) gene expression, Mean” value was 346.392, the “TMEM145 (NM_173633) gene expression, Mean” value was 166.627 and the “TPST2 (NM_0010085) gene expression, Mean” value was 370.953. The “TRAPPC9 (NM_031466) gene expression, Mean” value was 104.733, the “TSPAN9 (NM_006675) gene expression, Mean” value was 1313.95 and the “TUBB4 (NM_006087) gene expression, Mean” value was 253.587. For the same molecule, the “UBE2E2 (NM_152653) gene expression, Mean” value was 347.293, the “UNC84B (NM_015374) gene expression, Mean” value was 465.92 and the “VCX2 (NM_016378) gene expression, Mean” value was 415.874. For the same molecule, the “VCX3A (NM_016379) gene expression, Mean” value was 1237.23, the “VCX3B (NM_0010018) gene expression, Mean” value was 1368.4 and the “VSNL1 (NM_003385) gene expression, Mean” value was 249.848. For the same molecule, the “WDR8 (NM_017818) gene expression, Mean” value was 619.054, the “XBP1 (NM_0010795) gene expression, Mean” value was 505.041 and the “XM_373896 gene expression, Mean” value was 276.846. For the same molecule, the “XM_926633 gene expression, Mean” value was 1782.67, the “XM_932919 gene expression, Mean” value was 283.159 and the “XM_933796 gene expression, Mean” value was 270.602. The “XM_943677 gene expression, Mean” value was 245.788, the “ZBTB46 (NM_025224) gene expression, Mean” value was 207.588 and the “ZSWIM4 (NM_023072) gene expression, Mean” value was 393.591. For the same molecule, the “HIST1H2BK (NM_080593) gene expression, Mean” value (first HIST1H2BK entry (r906)) was 1316.1, the “TRPC4AP (NM_015638) gene expression, Mean” value (first TRPC4AP entry (r880)) was 633.52 and the “HIST1H2BK (NM_080593) gene expression, Mean” value (second HIST1H2BK entry (r952)) was 332.966. For the same molecule, the “TRPC4AP (NM_015638) gene expression, Mean” value (second TRPC4AP entry (r892)) was 1094.19.

From patent publication US9476099B2 (TRUSTEES OF DARTMOUTH COLLEGE, priority 2012, dated 2016)
